As usually defined, the EC50 is the concentration that produces a half-maximal response.

The structures appear in SMILES notation. Like-named read-outs stand apart in the source and are kept apart here.

For assay [1], the system named is HCV genotype 1a (H77 strain) replicon in HUH-7 cells. Kind of assay: HCV replicon luciferase reporter assay, genotype 1a. Type of assay: cell-based. Conditions: Hepatitis C virus, Huh-7, 72 h, HCV genotype 1a replicon luciferase, 3 days incubation, read-out: LE_1a (EC50, range). The essentials:
(§1)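 Replicon inhibition for both genotypes was measured as Renilla luciferase signal (EnduRen, 7.5 μM final, 2 h) after 3-day, 37° C exposure of replicon-bearing HUH-7 cells in 4% FCS DMEM, 0.5% DMSO. The 1b construct carries S1179I; the 1a H77 construct carries P1496L and S2204I. Twenty-point, 3-fold dilutions were fitted four-parametrically for EC50, and CC50 was taken from multiplexed Cell Titer-Blue.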
In general terms: Replicon systems follow genome replication, usually without infectious particles.

Assay [2] deals with HCV genotype 1b (Con1) replicon in HUH-7 cells. Kind of assay: HCV replicon luciferase reporter assay, genotype 1b. Type of assay: cell-based. Conditions: Hepatitis C virus, Huh-7, 72 h, HCV genotype 1b replicon luciferase, 3 days incubation, read-out: LE_1b (EC50, range). A digest of the protocol: as §1

As for `COc1ccc2c(O[C@@H]3C[C@H]4C(=O)N[C@]5(C(=O)NS(=O)(=O)C6(CF)CC6)C[C@H]5/C=C\CC[C@@H](C)C[C@@H](C)[C@H](NC(=O)OC(C)(C)C(F)(F)F)C(=O)N4C3)ncc(N3CCOCC3)c2c1` [Compound 4120], the EC50 in assay [1] and in assay [2] was less than 5.46 nM in each case.

Regarding `COc1cc2c(OC)cnc(O[C@@H]3C[C@H]4C(=O)N[C@]5(C(=O)NS(=O)(=O)C6(CO)CC6)C[C@H]5/C=C\CC[C@@H](C)C[C@@H](C)[C@H](NC(=O)OC(C)(C)C)C(=O)N4C3)c2cc1F` [Compound 4122, tert-butyl (2R,6S,7R,9R,13aS,14aR,16aS,Z)-2-(7-fluoro-4,6-dimethoxyisoquinolin-1-yloxy)-14a-(1-(hydroxymethyl)cyclopropylsulfonylcarbamoyl)-7,9-dimethyl-5,16-dioxo-1,2,3,5,6,7,8,9,10,11,13a,14,14a,15,16,16a-hexadecahydrocyclopropa[e]pyrrolo[1,2-a][1,4]diazacyclopentadecin-6-ylcarbamate], the EC50 in assay [1] and in assay [2] was less than 5.46 nM throughout.

On to `COc1cc2c(OC)cnc(O[C@@H]3C[C@H]4C(=O)N[C@]5(C(=O)NS(=O)(=O)C6(CO)CC6)C[C@H]5/C=C\CC[C@H](C)C[C@@H](C)[C@H](NC(=O)OC(C)(C)C)C(=O)N4C3)c2cc1F` [Compound 4123, tert-butyl (2R,6S,7R,9S,13aS,14aR,16aS,Z)-2-(7-fluoro-4,6-dimethoxyisoquinolin-1-yloxy)-14a-(1-(hydroxymethyl)cyclopropylsulfonylcarbamoyl)-7,9-dimethyl-5,16-dioxo-1,2,3,5,6,7,8,9,10,11,13a,14,14a,15,16,16a-hexadecahydrocyclopropa[e]pyrrolo[1,2-a][1,4]diazacyclopentadecin-6-ylcarbamate], for which the EC50 in assay [1] and in assay [2] was 4.82 to 103 nM in each case.

With `COc1ccc2c(O[C@@H]3C[C@H]4C(=O)N[C@]5(C(=O)NS(=O)(=O)C6(Cl)CC6)C[C@H]5/C=C\CC[C@@H](C)C[C@@H](C)[C@H](NC(=O)OC(C)(C)C(F)(F)F)C(=O)N4C3)ncc(OC)c2c1` [Compound 4124], the half-maximal effective concentration (EC50) in assay [1] (GETYPE1A) and in assay [2] (GETYPE1B) was less than 5.46 nM in each case.

`COc1ccc2c(O[C@@H]3C[C@H]4C(=O)N[C@]5(C(=O)NS(=O)(=O)C6(Cl)CC6)C[C@H]5/C=C\CC[C@@H](C)C[C@@H](C)[C@H](NC(=O)OC(C)(C)C)C(=O)N4C3)ncc(OC)c2c1` [Compound 4125, tert-butyl (2R,6S,7R,9R,13aS,14aR,16aS,Z)-14a-(1-chlorocyclopropylsulfonylcarbamoyl)-2-(4,6-dimethoxyisoquinolin-1-yloxy)-7,9-dimethyl-5,16-dioxo-1,2,3,5,6,7,8,9,10,11,13a,14,14a,15,16,16a-hexadecahydrocyclopropa[e]pyrrolo[1,2-a][1,4]diazacyclopentadecin-6-ylcarbamate]: the EC50 in assay [1] and in assay [2] was less than 5.46 nM in each case.

With `CCC1(S(=O)(=O)NC(=O)[C@@]23C[C@H]2/C=C\CC[C@H](C)C[C@@H](C)[C@H](NC(=O)OC(C)(C)C(F)(F)F)C(=O)N2C[C@H](Oc4nccc5cc(OC)c(F)cc45)C[C@H]2C(=O)N3)CC1` [Compound 4126], the concentration for a half-maximal effect (EC50) in assay [1] (GETYPE1A) and in assay [2] (GETYPE1B) was less than 5.46 nM each time.

Take `CCC1(S(=O)(=O)NC(=O)[C@@]23C[C@H]2/C=C\CC[C@@H](C)C[C@@H](C)[C@H](NC(=O)OC(C)(C)C(F)(F)F)C(=O)N2C[C@H](Oc4nccc5cc(OC)c(F)cc45)C[C@H]2C(=O)N3)CC1` [Compound 4127]: the EC50 in assay [1] (GETYPE1A) was 4.82 to 103 nM; in assay [2] (GETYPE1B) it was less than 5.46 nM.

With `COc1ccc2c(O[C@@H]3C[C@H]4C(=O)N[C@]5(C(=O)NS(=O)(=O)C6(CF)CC6)C[C@H]5/C=C\CC[C@@H](C)C[C@@H](C)[C@H](NC(=O)OC(C)(C)C(F)(F)F)C(=O)N4C3)nc(-c3ccc(OC(C)C)cc3)cc2c1` [Compound 4128], the EC50 in assay [1] (GETYPE1A) and in assay [2] (GETYPE1B) was less than 5.46 nM in each case.

For the molecule `COc1cnc(O[C@@H]2C[C@H]3C(=O)N[C@]4(C(=O)NS(=O)(=O)C5(CF)CC5)C[C@H]4/C=C\CC[C@@H](C)C[C@@H](C)[C@H](NC(=O)OC(C)(C)C(F)(F)F)C(=O)N3C2)c2cccc(Cl)c12` [Compound 4129], the EC50 in assay [1] (GETYPE1A) and in assay [2] (GETYPE1B) was less than 5.46 nM in each case.

Regarding `C[C@@H]1CC/C=C\[C@@H]2C[C@@]2(C(=O)NS(=O)(=O)C2(CF)CC2)NC(=O)[C@@H]2C[C@@H](Oc3cnc4ccccc4n3)CN2C(=O)[C@@H](NC(=O)OC(C)(C)C)[C@H](C)C1` [Compound 4130, tert-butyl (2R,6S,7R,9R,13aS,14aR,16aS,Z)-14a-(1-(fluoromethyl)cyclopropylsulfonylcarbamoyl)-7,9-dimethyl-5,16-dioxo-2-(quinoxalin-2-yloxy)-1,2,3,5,6,7,8,9,10,11,13a,14,14a,15,16,16a-hexadecahydrocyclopropa[e]pyrrolo[1,2-a][1,4]diazacyclopentadecin-6-ylcarbamate], the EC50 in assay [1] and in assay [2] was 4.82 to 103 nM throughout.

For the molecule `COc1ccc2c(O[C@@H]3C[C@H]4C(=O)N[C@]5(C(=O)NS(=O)(=O)C6(C)CC6)C[C@H]5/C=C\CC[C@@H](C)C[C@@H](C)[C@H](NC(=O)OC(C)(C)C)C(=O)N4C3)ncc(N3C[C@@H](C)O[C@@H](C)C3)c2c1` [Compound 4131, tert-butyl (2R,6S,7R,9R,13aS,14aR,16aS,Z)-2-(4-((2S,6R)-2,6-dimethylmorpholino)-6-methoxyisoquinolin-1-yloxy)-7,9-dimethyl-14a-(1-methylcyclopropylsulfonylcarbamoyl)-5,16-dioxo-1,2,3,5,6,7,8,9,10,11,13a,14,14a,15,16,16a-hexadecahydrocyclopropa[e]pyrrolo[1,2-a][1,4]diazacyclopentadecin-6-ylcarbamate], the concentration giving a half-maximal response (EC50) in assay [1] and in assay [2] was less than 5.46 nM in each case.

As for `COc1ccc2c(O[C@@H]3C[C@H]4C(=O)N[C@]5(C(=O)NS(=O)(=O)C6(C)CC6)C[C@H]5/C=C\CC[C@@H](C)C[C@@H](C)[C@H](NC(=O)OC(C)(C)C(F)(F)F)C(=O)N4C3)ncc(N3C[C@@H](C)O[C@@H](C)C3)c2c1` [Compound 4132], the EC50 in assay [1] (GETYPE1A) and in assay [2] (GETYPE1B) was less than 5.46 nM each time.

On to `C[C@@H]1CC/C=C\[C@@H]2C[C@@]2(C(=O)NS(=O)(=O)C2(C)CC2)NC(=O)[C@@H]2C[C@@H](Oc3ncc(OC(=O)OC(C)(C)C(F)(F)F)c4ccccc34)CN2C(=O)[C@@H](NC(=O)OC(C)(C)C(F)(F)F)[C@H](C)C1` [Compound 4133], for which the EC50 in assay [1] (GETYPE1A) is 4.82 to 103 nM; in assay [2] (GETYPE1B), less than 5.46 nM.

As for `C=COc1cnc(O[C@@H]2C[C@H]3C(=O)N[C@]4(C(=O)NS(=O)(=O)C5(C)CC5)C[C@H]4/C=C\CC[C@@H](C)C[C@@H](C)[C@H](NC(=O)OC(C)(C)C)C(=O)N3C2)c2ccccc12` [Compound 4134, tert-butyl (2R,6S,7R,9R,13aS,14aR,16aS,Z)-7,9-dimethyl-14a-(1-methylcyclopropylsulfonylcarbamoyl)-5,16-dioxo-2-(4-(vinyloxy)isoquinolin-1-yloxy)-1,2,3,5,6,7,8,9,10,11,13a,14,14a,15,16,16a-hexadecahydrocyclopropa[e]pyrrolo[1,2-a][1,4]diazacyclopentadecin-6-ylcarbamate], the EC50 in assay [1] and in assay [2] was less than 5.46 nM throughout.

With `COc1ccc2c(O[C@@H]3C[C@H]4C(=O)N[C@]5(C(=O)NS(=O)(=O)C6(C)CC6)C[C@H]5/C=C\CC[C@@H](C)C[C@@H](C)[C@H](NC(=O)OC(C)(C)C(F)(F)F)C(=O)N4C3)ncc(N3CCOCC3)c2c1` [Compound 4135], the EC50 in assay [1] (GETYPE1A) and in assay [2] (GETYPE1B) was less than 5.46 nM each time.

With `CCOc1cnc(O[C@@H]2C[C@H]3C(=O)N[C@]4(C(=O)NS(=O)(=O)C5(C)CC5)C[C@H]4/C=C\CC[C@@H](C)C[C@@H](C)[C@H](NC(=O)OC(C)(C)C)C(=O)N3C2)c2ccc(OC)cc12` [Compound 4136, tert-butyl (2R,6S,7R,9R,13aS,14aR,16aS,Z)-2-(4-ethoxy-6-methoxyisoquinolin-1-yloxy)-7,9-dimethyl-14a-(1-methylcyclopropylsulfonylcarbamoyl)-5,16-dioxo-1,2,3,5,6,7,8,9,10,11,13a,14,14a,15,16,16a-hexadecahydrocyclopropa[e]pyrrolo[1,2-a][1,4]diazacyclopentadecin-6-ylcarbamate], the EC50 in assay [1] and in assay [2] was less than 5.46 nM in each case.

Turning to `COc1ccc2c(O[C@@H]3C[C@H]4C(=O)N[C@]5(C(=O)NS(=O)(=O)C6(C)CC6)C[C@H]5/C=C\CC[C@@H](C)C[C@@H](C)[C@H](NC(=O)OC(C)(C)C)C(=O)N4C3)ncc(N3CCOCC3)c2c1` [Compound 4137, tert-butyl (2R,6S,7R,9R,13aS,14aR,16aS,Z)-2-(6-methoxy-4-morpholinoisoquinolin-1-yloxy)-7,9-dimethyl-14a-(1-methylcyclopropylsulfonylcarbamoyl)-5,16-dioxo-1,2,3,5,6,7,8,9,10,11,13a,14,14a,15,16,16a-hexadecahydrocyclopropa[e]pyrrolo[1,2-a][1,4]diazacyclopentadecin-6-ylcarbamate], the EC50 in assay [1] and in assay [2] was less than 5.46 nM throughout.
